Legend:
[1] = Inhibitory activity towards Beta-Glucosidase from Almond
[2] = as above; remark: listed apart in the source
[3] = Inhibitory activity towards Alpha-mannosidase from jack bean
[4] = Inhibitory activity towards Alpha-mannosidase from Jack bean
[5] = as above; remark: listed apart in the source
[6] = Inhibitory activity towards Beta-Glucosidase from Almond; remark: listed apart in the source
[7] = Inhibitory activity towards Alpha-mannosidase from Almond
[8] = Inhibitory activity towards Beta-Glucosidase from Almond; remark: listed apart in the source
[9] = Inhibitory activity towards Alpha-mannosidase from Almond; remark: listed apart in the source
[10] = as above; remark: listed apart in the source

Ki [4] | IC50 [5] | IC50 [6] | Structure (SMILES) | further results
– | – | 370 µM | OC1CNC(CNCc2ccccc2)C1O (stereo not drawn) [2-(Benzylamino-methyl)-pyrrolidine-3,4-diol] | –
170 µM | 440 µM | – | C[C@@H](NCC1NCC(O)C1O)c1ccccc1 (stereo partly drawn) [2-[((R)-1-Phenyl-ethylamino)-methyl]-pyrrolidine-3,4-diol] | –
– | 700 µM | 430 µM | OC1CNC(CNCC2CCN(Cc3ccccc3)CC2)C1O (stereo not drawn) [2-{[(1-Benzyl-piperidin-4-ylmethyl)-amino]-methyl}-pyrrolidine-3,4-diol] | –
– | – | 140 µM | OC1CNC(CNCc2ccco2)C1O (stereo not drawn) [2-{[(Furan-2-ylmethyl)-amino]-methyl}-pyrrolidine-3,4-diol] | Ki [8]: 12 µM
– | 700 µM | 420 µM | OC1CNC(CNCn2ccnc2)C1O (stereo not drawn) [2-{[(Imidazol-1-ylmethyl)-amino]-methyl}-pyrrolidine-3,4-diol] | IC50 [7]: 570 µM
26 µM | – | – | OC1CNC(CNCc2cccs2)C1O (stereo not drawn) [2-{[(Thiophen-2-ylmethyl)-amino]-methyl}-pyrrolidine-3,4-diol] | IC50 [9]: 350 µM; Ki [10]: 98 µM
– | – | 430 µM | CC(=O)N(Cc1ccccc1)CC1NCC(O)C1O (stereo not drawn) [N-Benzyl-N-(3,4-dihydroxy-pyrrolidin-2-ylmethyl)-acetamide] | Ki [1]: 220 µM

Continued, molecule first:

Structure (SMILES) | Ki [4] | IC50 [5] | IC50 [6] | further results
OCC(O)[C@H]1NC[C@H](O)[C@@H]1O (stereo partly drawn) | – | – | – | Ki [1]: 53 µM; IC50 [2]: 120 µM; IC50 [3]: 800 µM
OC(O)CC1NCC(O)C1O (stereo not drawn) [2-(2,2-Dihydroxy-ethyl)-pyrrolidine-3,4-diol] | 80 µM | 180 µM | – | –
NCC1NCC(O)C1O (stereo not drawn) [2-Aminomethyl-pyrrolidine-3,4-diol] | 53 µM | 170 µM | – | IC50 [7]: 1000 µM
OC1CNC(CNC2CCCC2)C1O (stereo not drawn) [2-Cyclopentylaminomethyl-pyrrolidine-3,4-diol] | – | – | 500 µM | IC50 [3]: 560 µM
CC(NCC1NCC(O)C1O)C(O)(c1ccccc1)c1ccccc1 (stereo not drawn) [2-[(2-Hydroxy-1-methyl-2,2-diphenyl-ethylamino)-methyl]-pyrrolidine-3,4-diol] | 170 µM | – | 550 µM | IC50 [3]: 440 µM
